# Test results from the Kinase Knowledgebase extract (Sharma et al. 2016).
# Experiments:
# EGFR (mouse) [1] = biological target: EGFR (mouse) (UniProt P00533); settings: balb/c 3t3
# EGFR (mouse) [2] = biological target: EGFR (mouse) (UniProt P00533); settings: balb/mk
# EGFR = EGFR (UniProt P00533)
# EGFR, sequence (P00533 whole entry, looked up): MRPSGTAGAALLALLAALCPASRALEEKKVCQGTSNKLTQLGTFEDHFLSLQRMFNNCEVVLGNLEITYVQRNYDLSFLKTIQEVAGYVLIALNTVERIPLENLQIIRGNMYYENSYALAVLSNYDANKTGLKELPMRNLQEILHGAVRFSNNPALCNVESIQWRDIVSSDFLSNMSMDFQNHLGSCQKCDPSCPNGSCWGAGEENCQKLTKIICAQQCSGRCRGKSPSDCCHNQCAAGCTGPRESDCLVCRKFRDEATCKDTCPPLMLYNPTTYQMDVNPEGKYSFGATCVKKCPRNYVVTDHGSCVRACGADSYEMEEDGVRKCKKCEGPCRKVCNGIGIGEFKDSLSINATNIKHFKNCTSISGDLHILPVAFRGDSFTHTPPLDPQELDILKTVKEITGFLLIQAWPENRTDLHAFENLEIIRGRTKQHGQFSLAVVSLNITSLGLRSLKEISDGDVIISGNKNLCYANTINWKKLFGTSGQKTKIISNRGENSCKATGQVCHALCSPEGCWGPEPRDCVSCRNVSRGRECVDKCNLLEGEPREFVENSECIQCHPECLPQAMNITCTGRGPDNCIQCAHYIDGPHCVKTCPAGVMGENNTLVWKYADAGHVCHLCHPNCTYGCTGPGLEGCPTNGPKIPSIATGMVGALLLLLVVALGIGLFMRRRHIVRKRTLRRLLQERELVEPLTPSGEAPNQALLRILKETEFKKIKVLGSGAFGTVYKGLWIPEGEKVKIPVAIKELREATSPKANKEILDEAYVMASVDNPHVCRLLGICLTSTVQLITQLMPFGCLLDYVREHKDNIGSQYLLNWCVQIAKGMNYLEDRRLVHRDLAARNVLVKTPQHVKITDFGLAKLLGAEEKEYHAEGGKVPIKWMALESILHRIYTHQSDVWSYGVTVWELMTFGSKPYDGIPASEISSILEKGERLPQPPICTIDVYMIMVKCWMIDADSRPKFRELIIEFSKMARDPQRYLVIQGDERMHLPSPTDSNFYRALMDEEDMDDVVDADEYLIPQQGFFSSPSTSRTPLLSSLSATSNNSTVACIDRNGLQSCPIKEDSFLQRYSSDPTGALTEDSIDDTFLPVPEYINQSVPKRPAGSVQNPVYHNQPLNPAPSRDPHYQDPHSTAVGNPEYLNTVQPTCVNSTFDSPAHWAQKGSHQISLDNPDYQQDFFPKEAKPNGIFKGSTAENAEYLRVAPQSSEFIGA
Compound,IC50 (EGFR (mouse) [1]) [µM],IC50 (EGFR (mouse) [2]) [µM],IC50 (EGFR) [µM]
Oc1ccc(-c2n[nH]c3ncnc(Nc4cccc(Cl)c4)c23)cc1,> 10,–,–
Clc1cccc(Nc2n[nH]c3ncnc(Nc4ccccc4)c23)c1,> 10,–,–
Clc1cccc(Nc2ncnc3[nH]nc(NCc4ccccc4)c23)c1,> 10,–,–
Clc1cccc(Nc2n[nH]c3ncnc(Oc4cccc(Cl)c4)c23)c1,10,> 50,–
COc1ccc(-c2n[nH]c3ncnc(Nc4cccc(Cl)c4)c23)cc1,> 10,–,–
Nc1ncnc2[nH]nc(Nc3cccc(Cl)c3)c12,> 10,–,–
Cc1cccc(Nc2ncnc3[nH]nc(Nc4cccc(Cl)c4)c23)c1,> 10,–,–
COc1cccc(CNc2n[nH]c3ncnc(Nc4cccc(Cl)c4)c23)c1,> 10,–,–
Clc1cccc(Nc2ncnc3[nH]nc(-c4ccccc4)c23)c1,> 10,–,–
Nc1cccc(-c2n[nH]c3ncnc(Nc4cccc(Cl)c4)c23)c1,> 10,–,–
Clc1cccc(Nc2n[nH]c3ncnc(NCc4ccccc4)c23)c1,> 10,–,–

# Now from value to molecule:
IC50 (EGFR (mouse) [1]) [µM],IC50 (EGFR (mouse) [2]) [µM],IC50 (EGFR) [µM],Compound
> 10,> 50,–,Nc1ncnc2c1c(-c1ccccc1)nn2-c1ccccc1
> 10,–,–,Clc1cccc(Nc2n[nH]c3ncnc(Nc4cccc(Br)c4)c23)c1
–,–,0.45,Cc1c(C)n(C)c2ncnc(Nc3cccc(Cl)c3)c12
> 10,–,–,c1ccc(Nc2ncnc3[nH]nc(Nc4ccccc4)c23)cc1
> 10,> 50,–,O=[N+]([O-])c1cccc(-c2n[nH]c3ncnc(Nc4cccc(Cl)c4)c23)c1
> 10,–,–,Oc1cccc(-c2n[nH]c3ncnc(Nc4cccc(Cl)c4)c23)c1
> 10,–,–,CC(C)(C)OC(=O)Nc1ccc(-c2n[nH]c3ncnc(Nc4cccc(Cl)c4)c23)cc1
> 10,–,–,Nc1nc(N)c2c(Nc3cccc(Cl)c3)n[nH]c2n1
> 10,–,–,Nc1ccc(-c2n[nH]c3ncnc(Nc4cccc(Cl)c4)c23)cc1
> 10,–,–,Oc1ccc(Nc2n[nH]c3ncnc(Nc4cccc(Cl)c4)c23)cc1
> 10,–,–,Oc1cccc(Nc2n[nH]c3ncnc(Nc4cccc(Cl)c4)c23)c1
> 10,–,–,COc1cccc(Nc2n[nH]c3ncnc(Nc4cccc(Cl)c4)c23)c1
> 10,–,–,COc1ccc(CNc2n[nH]c3ncnc(Nc4cccc(Cl)c4)c23)cc1
> 10,–,–,Clc1cccc(CNc2n[nH]c3ncnc(Nc4cccc(Cl)c4)c23)c1
